Consider one compound from patent publication US20120265121A1, “PHTHALOCYANINE-BASED ANTIFUNGAL AGENTS” (CASE WESTERN RESERVE UNIVERSITY, priority 2011, published 2012).

Series [1] relates to C. albicans (strain SC-5134). Kind of series: FUN-1 fluorescence metabolic activity assay (confocal). The class given is cell-based, Candida albicans. Conditions: 1.0 μM Pc 4, 2.0 J/cm^2, vs cells exposed to Pc 4 but not irradiated. The protocol: Pc 4-Photodynamic Treatment Conditions: The phthalocyanine photosensitizer Pc 4 was kindly provided by Dr. Malcolm E. Kenney (Department of Chemistry, Case Western Reserve University, Cleveland, Ohio, USA). Stock solutions (0.5 mM) of Pc 4 were prepared in N′,N′-dimethylformamide (DMF, ThermoFisher, Waltham, Mass., USA) and stored at 4° C. in the dark. C. albicans cultures were incubated with Pc 4 concentrations ranging from 0.1 to 1.0 μM in 1× PBS containing 10% FBS for at least 1 hr at 37° C. in the dark and subsequently irradiated with red light using a light-emitting diode array (EFOS, Mississauga, Ontario, Canada) at a fluence ranging from 1.0 to 2.0 J/cm^2 (1.0 mW/cm^2, λmax ˜670-675 nm) at room temperature. […] The absorbance of the resulting orange solution was measured using a spectrophotometer (Spectronic Genesys 5, Analytical Instrument, Golden Valley, Minn., USA) at 492 nm. […] FUN-1 fluorescence was excited using solid state diode lasers (488 nm) and collected with a 580-650 nm band pass emission filter.

The format of series [2] is in vitro ADME, human. The source says: Because drug penetration into and through the nail plate is always a challenge in the treatment of onychomycosis, the nail absorption of topically applied Pc 4 was also investigated. […] Considering that these samples were healthy nails, it appears that diseased/dystrophic nails whose barrier functions have been compromised may even have better Pc 4 absorption. Nonetheless, in the clinical protocol, the inventors specified that Pc 4 will be applied not only on the nail plate but also on the exposed subungual tissue and periungual area.

For series [3] the following is noted: mice, delivered systemically; cited from earlier work.
Series [4] relates to C. albicans (strain SC-5134). Kind of series: Colony forming unit (CFU) phototoxicity assay. The class given is cell-based, Candida albicans. As for the experimental part: Colonies Formation Assay: Briefly, the 1 ml of each treatment condition was diluted into 1:10,000, 1:50,000 or 1:100,000 and plated 100 μL onto Sabouraud dextrose agar plate (Becton Dickinson, New Jersey, USA). All plates were incubated at 37° C. and colonies were imaged and counted the following day for each plate/condition.
Pc 4-Photodynamic Treatment Conditions: The phthalocyanine photosensitizer Pc 4 was kindly provided by Dr. Malcolm E. Kenney (Department of Chemistry, Case Western Reserve University, Cleveland, Ohio, USA). Stock solutions (0.5 mM) of Pc 4 were prepared in N′,N′-dimethylformamide (DMF, ThermoFisher, Waltham, Mass., USA) and stored at 4° C. in the dark. C. albicans cultures were incubated with Pc 4 concentrations ranging from 0.1 to 1.0 μM in 1× PBS containing 10% FBS for at least 1 hr at 37° C. in the dark and subsequently irradiated with red light using a light-emitting diode array (EFOS, Mississauga, Ontario, Canada) at a fluence ranging from 1.0 to 2.0 J/cm^2 (1.0 mW/cm^2, λmax ˜670-675 nm) at room temperature.
Colony forming unit (CFU) phototoxicity assay: CFU assay was done as described by Chandra et al. with minor modifications. […] After 24 hours, colonies were counted by eye, and all the percentage of surviving cells from the Pc 4-PDT cultures was normalized against that of cultures exposed to Pc 4 or light alone. […]

The test system of another series is T. rubrum. Kind of series: Clonogenic (CFU) assay after Pc 4-PDT. The class given is cell-based, Trichophyton rubrum. Conditions: 0-2 μM Pc 4, 2.0 J/cm^2. As for the experimental part:
Cells were treated with 0-2 μM of Pc 4 for at least 2 hours before being photoirradiated with 2.0 J/cm^2.
Mycologic cure remains the gold-standard in the evaluation of antifungal therapies and leads to lower recurrence rates. […] Immediately after photoirradiation, treated and control samples were diluted and spread 100 μL onto Sabouraud potato agar plates (Becton Dickinson, New Jersey, USA). All plates were incubated at 28° C. and colonies were counted within 5 days.

Series [5] relates to C. albicans (strain SC-5134). The experiment in a line: DNA fragmentation by agarose gel electrophoresis. Type of series: cell-based, Candida albicans. As for the experimental part:
Subsequently, C. albicans total chromosomal DNA was extracted using the MasterPure™ Yeast DNA Purification Kit (Epicentre Biotechnologies, Madison, Wis., USA) per the manufacturer's protocol. Extracted DNA concentrations were determined with a spectrophotometer (Nanodrop™ 3000, ThermoFisher Scientific, Waltham, Mass., USA) at a wavelength range of 260-280 nm. DNA (3.0 μg) was loaded onto a 1.0% (w/v) agarose gel (Bioexpress, Kaysbille, Utah, USA) impregnated with ethidium bromide (ThermoFisher, Waltham, Mass., USA) and subjected to electrophoresis. The gel was subsequently visualized using a UV transilluminator (VersaDoc™, Bio-Rad, Hercules, Calif., USA).

For series [6] the following is noted: topical application; cited from earlier work.

Take `CN(C)CCC[Si](C)(C)O[Si]1(O)n2c3c4ccccc4c2N=C2N=C(N=c4c5ccccc5c(n41)=NC1=NC(=N3)c3ccccc31)c1ccccc12` (stereo not shown) [Pc 4, HOSiPcOSi(CH3)2(CH2)3N(CH3)2]: the FUN-1 fluorescence result in series [1] was “much reduced FUN-1 fluorescence”. For the same compound, the “Pc 4 fluorescence within the nail plate” value in series [2] was “significant amount of Pc 4 fluorescence can be detected within the nail plate”. For the same compound, the “clearance compared with Photofrin” value in series [3] was “much more rapidly cleared than Photofrin”. Besides, in series [4] (1.0 μM Pc 4, light at 2.0 J/cm^2 (670-675 nm)), the “cell killing / reduction of cell survival (CFU)” value stood at 4 logs. Moreover, in series [4] (highest dose of Pc 4, no light, compared to untreated cells), the “effect of photosensitizer alone on cell proliferation and cell death” value is “neither the highest dose of photosensitizer alone nor light alone affected cell proliferation and cell death”. Besides, the “survival (CFU)” value in the series on T. rubrum (terbinafine-resistant strain MRL666) and in the series with T. rubrum (terbinafine-sensitive strain 23013) was “dose-dependent decrease in the survival” each time. The DNA fragmentation result in series [5] (0.4 μM Pc 4-PDT) is listed as “clear evidence of DNA degradation”; in series [5] (0.6 μM Pc 4-PDT), “matched that of the hydrogen peroxide positive control”. Also, the “penetration through stratum corneum and epidermis” value in series [6] was “penetrate through the stratum corneum and epidermis”.
